The values below come from patent US20240180881A1, “METHODS FOR DECREASING RESISTANCE TO CHEMOTHERAPY” (National Institute of Immunology, priority 2022, published 2024).

Where a name gives a salt, the structure may show the parent alone. Read-outs that look alike come from different tables or passages of the source.

The term EC50 denotes the concentration at which the effect is half-maximal.

For this assay, the target named is T1, BLM-RAD54 interaction (BLM F2 and N-RAD54 F1) (Homo sapiens, UniProt Q92698).
T1 construct: expressed in transfected cells; host or cells: HEK293T
T1 sequence (Q92698 1-212): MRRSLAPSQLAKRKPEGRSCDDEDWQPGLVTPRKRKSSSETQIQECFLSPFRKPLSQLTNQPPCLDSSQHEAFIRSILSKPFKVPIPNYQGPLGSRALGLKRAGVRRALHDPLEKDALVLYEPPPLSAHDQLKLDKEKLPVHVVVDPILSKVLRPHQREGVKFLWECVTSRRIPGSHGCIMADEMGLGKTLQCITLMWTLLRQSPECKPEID
Put plainly: Renilla luciferase-based protein complementation assay (PCA). Format: cell-based. On the procedure:
Specifically, N-RAD54-F1, C-RAD54-F1, BLM-F1 and BLM-F2 were transfected in HEK293T. Forty-eight hours post-transfection, Renilla luciferase-based PCA were carried out with the indicated combination of the expressed proteins. The experiment was repeated three times. Mean±S.D.
Using the Renilla luciferase-based protein complementation assay described earlier, 1280 FDA/EMA approved small molecules present in Prestwick chemical library were screened for their ability to disrupt BLM-RAD54 interaction. Each of the small molecules was incubated with HEK293T cells expressing BLM-F2 and N-RAD54-F1. Compared to cells expressing only BLM-F2 and N-RAD54-F1, the decrease in Renilla luciferase intensity in presence of each small molecule was monitored. Percentage disruption of the interaction between BLM F2 and N-RAD54 F1 was plotted in form of heatmap. The disruption of the BLM-RAD54 interaction was determined by a decrease in the Renilla luciferase activity as compared to control untreated cells.
The percentage disruption of the interaction between BLM F2 and N-RAD54 F1 was plotted as a non-linear regression line. The data was from three independent experiments.
Renilla Luciferase (Rlu) based Protein complementation assay was carried out as described in (Stefan et al., 2007). For preliminary screening of the Prestwick Chemical Library (containing 1280 FDA/EMA approved small molecules), HEK293T cells were seeded in the 6-well plates a day prior to the transfection. Next day the cells were transfected by 2 μg each of pcDNA3.1 N-RAD54 F1, pcDNA3.1 C-RAD54 F1, pcDNA3.1 BLM F1, pcDNA3.1 BLM F2 plasmids (alone or in different combinations) using Lipofectamine 2000 (according to the manufacturer's protocol). 36 hours post-transfection, approximately […] cells were seeded in a 96-well plate and incubated at 37° C. for 2 hour with or without 10 μM of the 1280 small molecules present in the library. 10 μM of Coenleterazine h was added into each well and Rluc activity was monitored for the first 10 seconds in Varioskan Microplate Reader (Thermo Fisher Scientific). The validation screen was performed with 17 small molecules at 100 μM, 10 μM, 1 μM, 100 nM, 10 nM and 1 nM concentrations. The percentage reduction in the protein-protein interaction was then calculated as compared to the control wells (without any small molecule).

Where [1] appears, read: disruption of BLM F2 / N-RAD54 F1 interaction, HEK293T cells, 1 nM to 100 μM, read-out: EC50.

As to `COc1ccc(CC2c3cc(OC)c(OC)cc3CC[N+]2(C)CCC(=O)OCCCCCOC(=O)CC[N+]2(C)CCc3cc(OC)c(OC)cc3C2Cc2ccc(OC)c(OC)c2)cc1OC` (stereo not shown) [C5, Atracurum besylate], the concentration for a half-maximal effect (EC50) under setting [1] was determined as 5.38 ± 2.17 nM.

Regarding `Oc1c(Cl)cc(Cl)c2cccnc12` [C16, Chloroxine], under setting [1], the EC50 amounted to 26.4 ± 2.28 nM.

On to `COc1c2occc2c(OC)c2c(=O)cc(C)oc12` [C9, Khellin], for which the EC50 under setting [1] was 16.7 ± 1.26 nM.

On to `CC(C)CC1C(=O)N2CCC[C@H]2[C@]2(O)O[C@](NC(=O)[C@@H]3C=C4c5cccc6[nH]c(Br)c(c56)C[C@H]4N(C)C3)(C(C)C)C(=O)N12` (stereo partly shown) [C12, Bromocryptine mesylate], for which the EC50 amounted to 41.4 ± 4.46 nM.

`CN(C)C(=N)N=C(N)N` [C4, Metformin hydrochloride]: under setting [1], the EC50 stood at 3.01 ± 0.812 nM.

As to `CC[C@H]1OC(=O)[C@H](C)[C@@H](O[C@H]2C[C@@](C)(OC)[C@@H](O)[C@H](C)O2)[C@H](C)[C@@H](O[C@@H]2O[C@H](C)C[C@H](N(C)C)[C@H]2O)[C@](C)(O)C[C@@H](C)C(=O)[C@H](C)[C@@H](O)[C@]1(C)O` [C15, Erythromycin], under setting [1], the EC50 turned out to be 8.12 ± 3.89 nM.

For `Cc1cnc(C(=O)NCCc2ccc(S(=O)(=O)NC(=O)NC3CCCCC3)cc2)cn1` [C13, Glipizide], the EC50 under setting [1] is 6.75 ± 3.69 nM.
